We go through eight compounds from publication PMC4655410, “Hepatitis B virus efficiently infects non-adherent hepatoma cells via human sodium taurocholate cotransporting polypeptide” (Scientific Reports, 2015).

“Also recorded” adds a separate entry of the source. Where two headings read alike, the source gives them in different places. Bounds are passed on as bounds.

Series [1] has as its system HBV. Briefly: Inhibition of HBV infection of non-adherent HepG2/NTCPA3 cells (intracellular HBV RNA, real-time qRT-PCR). Type of series: cell-based, Hepatitis B virus (genotype D). The settings on record: for IC50: Hepatitis B virus, read-out: IC50 (anti-HBV activity); for Selectivity Index: SI from CC50 and IC50. The protocol: In the case of the non-adherent cell conditions of infection, HepG2 cells, the derived cells, or differentiated HepaRG cells were harvested using 0.25% trypsin/ethylenediaminetetraacetic acid (EDTA) solution (Sigma). After washing once with 10% FBS-DMEM, the resulting cells were suspended in the primary hepatocyte maintenance medium (PMM) consisting of William’s E medium (Sigma) supplemented with 2 mM L-glutamine, 5 μg/ml transferrin (Sigma), 10 ng/ml recombinant human epidermal growth factor (PeproTech, Rocky Hill, NJ, USA), 3 μg/ml insulin, 18 μg/ml hydrocortisone, 40 ng/ml dexamethasone (Sigma), 5 ng/ml sodium selenite (Sigma), 2% DMSO (Wako), 100 U/ml penicillin, and 100 μg/ml streptomycin (Gibco). The suspended cells (1.25 × 10^5 cells) were added to each well following the addition of virus, and were then immediately mixed well in 0.5 ml of PMM supplemented with 4% polyethylene glycol (PEG) 8000 (Sigma) and 2% FBS in each well of a 24-well collagen-coated plate. The resulting mixtures were incubated at 37 °C (0 days post-infection, dpi).
The cells infected in non-adherent or adherent phase were washed three times with phosphate-buffered saline (PBS) at 1 dpi and incubated in fresh PMM supplemented with 10% FBS. The cells were re-seeded at 2 dpi at a density of 2 × 10^4 cells/well (48-well collagen-coated plate) or 4 × 10^4 cells/well (24-well collagen-coated plate) and maintained in PMM supplemented with 10% FBS. The cells and the culture supernatants were collected at each indicated dpi in order to evaluate the amounts of viral proteins, RNA, and DNA.
Simvastatin, proscillaridin A, bufalin, convallatoxin, digitoxin, digoxin, and azelastine were purchased from Sigma. Fluvastatin was from Cayman Chemical Co. (Ann Arbor, MI, USA). The lipopeptide myr-47WT, which is an N-terminally myristoylated peptide consisting of aa 2 to 47 of the preS1 region of HBV, and myr-47N9K, in which Asn at the 9th position is substituted with Lys, were synthesized by Scrum Co. (Tokyo, Japan)[11]. […] These cells (1 × 10^6 cells/ml) were preincubated at room temperature for 1 h in PMM supplemented with a peptide at 400 nM or a compound at the indicated concentration, and were then infected with HBV at 1,000 GEq/cell in the presence of the preS1 peptide or compounds at the same concentration as in the preincubation. The resulting cells were washed three times with PBS at 1 dpi and incubated in fresh PMM supplemented with 10% FBS. Cells were then re-seeded at 2 dpi at a density of 2 × 10^4 cells/well (48-well plate) or 4 × 10^4 cells/well (24-well plate) and maintained in PMM supplemented with 10% FBS. The resulting cells and culture supernatants were collected at each indicated dpi in order to evaluate viral RNA and DNA.
(§1) Total RNA was extracted using the RNeasy Mini Kit (Qiagen, Valencia, CA, USA), followed by DNase digestion using the TURBO DNA-free kit (Ambion, Austin, TX, USA). The resulting RNA preparation was reverse-transcribed using ReverTra Ace qPCR RT Master Mix (TOYOBO, Tokyo, Japan) according to the manufacturer’s protocol. Viral DNA was extracted from culture supernatants using the QIAamp DNA Mini Kit (Qiagen) according to the manufacturer’s protocol. The amounts of viral DNA and RNA were measured by real-time quantitative PCR (qPCR) and real-time quantitative reverse transcriptase (qRT)-PCR, respectively. The amounts of intracellular HBV RNA and supernatant HBV DNA were estimated according to the method described by Yan et al.[11]. The amounts of NTCP and GAPDH mRNAs were estimated by real-time qRT-PCR using the primer pairs 5′-[…]-3′ and 5′-[…]-3′, and 5′-[…]-3′ and 5′-[…]-3′, respectively. Real-time PCR was carried out using the Fast SYBER Green Master Mix (Applied BioSystems) and StepOne Plus Real-Time PCR System (Applied BioSystems). The amounts of HBs and HBe antigens in culture supernatants were estimated by a chemiluminescent immunoassay (SRL Inc., Tokyo, Japan).
Supplementary Figure 4. […]

The next series can be described thus: in vitro. The note with it: human. As to the method: (§2) Cell viability was evaluated using the MTS assay system (CellTiter 96 AQueous One Solution Cell Proliferation Assay, Promega, Madison, WI, USA).
(§3) real-time qRT-PCR in cells harvested at 6 dpi (black bars). Cell viability was measured
(§4) by the MTS assay (black line with a triangle). i. […]
(§5) non-adherent phase (black columns) in the presence of 0, 10 or 30 nM proscillaridin A. […]

A further series concerns HepG2/NTCPA3 cells. The experiment in a line: in vitro. As to the method: as §2, §3, §4, §5
In series [2] the target is T1, NTCP (Homo sapiens, UniProt Q14973).
T1 construct: expressed in transfected cells; plasmid pEF pGKpuro, puromycin selection
T1 sequence (Q14973 1-349): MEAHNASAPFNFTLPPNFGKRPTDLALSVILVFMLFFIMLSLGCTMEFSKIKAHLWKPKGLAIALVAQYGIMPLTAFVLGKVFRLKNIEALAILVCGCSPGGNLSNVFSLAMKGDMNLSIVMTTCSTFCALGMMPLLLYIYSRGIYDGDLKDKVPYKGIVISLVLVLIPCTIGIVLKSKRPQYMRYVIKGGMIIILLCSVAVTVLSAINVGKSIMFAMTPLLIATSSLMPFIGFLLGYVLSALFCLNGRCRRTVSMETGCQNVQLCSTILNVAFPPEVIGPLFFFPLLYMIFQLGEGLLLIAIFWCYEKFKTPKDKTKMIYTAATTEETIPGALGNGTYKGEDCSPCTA
The experiment in a line: Competitive binding assay: compounds versus myr-47WT binding to HepG2/NTCPA3 cells (FACS). The note with it: compounds at 10 μM (proscillaridin A 10 to 100 μM). As to the method: After washing twice with 2% FBS/PBS, the resulting cells were analyzed by FACS analysis.
Supplementary Figure 5. Effects of compounds on the binding ability of preS1 lipopeptide to HepG2/NTCPA3 cells. a and b. HepG2/NTCPA3 cells were pretreated with DMSO for 30 min and then were treated with myr-47N9K (a) or myr-47WT (b) in the presence of DMSO for an additional 30 min. The resulting cells were subjected to FACS analysis. c to h. HepG2/NTCPA3 cells were pretreated with the indicated concentration of each compound for 30 min and then were treated with myr-47WT in the presence of each compound for an additional 30 min. […]
fluvastatin (d), proscillaridin A (e, f and g), and azelastine (h) on preS1 binding were analyzed using FACS analysis, as described in the Materials and Methods section.
(1 picture or pasted object on this page, not shown here)

The subject of series [3] is HBV. The experiment in a line: Effect on HBV replication, compound added after infection (intracellular HBV RNA). Type of series: cell-based, Hepatitis B virus (genotype D). The note with it: compound added at 3 dpi, harvested at 6 dpi, HepG2/NTCPA3, HBV 1,000 GEq/cell. The protocol:
The resulting cells were harvested at 6 dpi. The amount of intracellular HBV RNA was quantified by real-time qRT-PCR (black bars) and is presented as the percentage of the control value (DMSO). Cell viability was evaluated (gray bars). Data were calculated from 3 to 5 independent experiments and are expressed as means ± SD.
as §1, with “The amounts of HBs and HBe antigens in culture supernatants were estimated by a chemiluminescent immunoassay (SRL Inc., Tokyo, Japan).” left out

Series [4] has as its system HBV. The experiment in a line: Supernatant HBe antigen after HBV infection in the presence of compound (chemiluminescence immunoassay). Type of series: cell-based, Hepatitis B virus (genotype D). The settings on record: non-adherent HepG2/NTCPA3 cells, HBV 1,000 GEq/cell, supernatant at 12 dpi. As to the method: as §1
Cell viability was measured
Culture supernatants were collected at
antigen was quantified by a chemiluminescence immunoassay. j. HepG2/NTCPA3 cells

Series [5] deals with NTCP. The settings on record: read-out: IC50 for inhibition of NTCP-mediated taurocholic acid uptake; cited from earlier work.
Setting [6] is: non-adherent HepG2/NTCPA3 cells, HBV 1,000 GEq/cell, compound from 1 h pre-infection to 1 dpi, HBV RNA at 6 dpi.
Setting [7] is: non-adherent HepG2/NTCPA3 cells, compound from 1 h pre-infection to 1 dpi.

As to `CN1CCCC(n2nc(Cc3ccc(Cl)cc3)c3ccccc3c2=O)CC1` (stereo not drawn) [Azelastine], the IC50 in the series on HBV [1] (setting [6]) was greater than 30000 nM. In addition, the “Inhibitory effect on HBV infection (in words)” value in the series on HBV [1] (at 0.01 to 1 μM, non-adherent HepG2/NTCPA3 cells) was “moderate and significant inhibitory effects”. For the same compound, the CC50 in the series “in vitro” was greater than 30000 nM.
For `C[C@]12CC[C@H](O)C[C@H]1CC[C@@H]1[C@@H]2CC[C@]2(C)[C@@H](c3ccc(=O)oc3)CC[C@]12O` [Bufalin], the IC50 with HBV [1] (HepG2, 1 h) was determined as 32.4 ± 11.3 nM. In addition, the “Selectivity Index” value with HBV [1] was determined as 15.8 ± 4.3. Moreover, the “Inhibition of HBV infection (in words)” value in the series on HBV [1] (setting [7]) is given as “inhibited HBV infection in a dose-dependent manner”; with HBV [1] (non-adherent HepG2/NTCPA3 cells, compound from 1 h pre-infection to 1 dpi, listed as bufalin) it was “inhibited HBV infection”. Moreover, in “in vitro”, the CC50 came to 479 ± 64.7 nM.
With `C[C@@H]1O[C@@H](O[C@H]2CC[C@]3(C=O)[C@H]4CC[C@]5(C)[C@@H](C6=CC(=O)OC6)CC[C@]5(O)[C@@H]4CC[C@]3(O)C2)[C@H](O)[C@H](O)[C@H]1O` [Convallatoxin], the IC50 in the series with HBV [1] (HepG2, 1 h) is 10.7 ± 3.6 nM. For the same compound, the “Selectivity Index” value with HBV [1] is recorded as 15.7 ± 4.7. In addition, the “Inhibition of HBV infection (in words)” value with HBV [1] (setting [7]) was “inhibited HBV infection in a dose-dependent manner”. In addition, in the series “in vitro”, the CC50 amounted to 156 ± 53.8 nM.
Take `C[C@H]1O[C@@H](O[C@H]2[C@@H](O)C[C@H](O[C@H]3[C@@H](O)C[C@H](O[C@H]4CC[C@@]5(C)[C@H](CC[C@@H]6[C@@H]5CC[C@]5(C)[C@@H](C7=CC(=O)OC7)CC[C@]65O)C4)O[C@@H]3C)O[C@@H]2C)C[C@H](O)[C@@H]1O` [Digitoxin]: the half-maximal inhibitory concentration (IC50) in the series with HBV [1] (setting [6]) amounted to 93.3 ± 15.3 nM. In the series with HBV [1], the “Selectivity Index” value is on record as 18.9 ± 3.4. In addition, the “Inhibition of HBV infection (in words)” value in the series on HBV [1] (setting [7]) is recorded as “inhibited HBV infection in a dose-dependent manner”. The CC50 in “in vitro” turned out to be 1730 ± 384 nM.
In the case of `C[C@H]1O[C@@H](O[C@H]2[C@@H](O)C[C@H](O[C@H]3[C@@H](O)C[C@H](O[C@H]4CC[C@@]5(C)[C@H](CC[C@@H]6[C@@H]5C[C@@H](O)[C@]5(C)[C@@H](C7=CC(=O)OC7)CC[C@]65O)C4)O[C@@H]3C)O[C@@H]2C)C[C@H](O)[C@@H]1O` [Digoxin], in the series on HBV [1] (setting [6]), the IC50 was greater than 100 nM. For the same compound, in the series on HBV [1] (setting [7]), the “Inhibition of HBV infection (in words)” value is recorded as “did not inhibit HBV infection”. For the same compound, the CC50 in “in vitro” amounted to 1430 ± 277 nM.
Regarding `CC(C)n1c(/C=C/C(O)CC(O)CC(=O)O)c(-c2ccc(F)cc2)c2ccccc21` (stereo not drawn) [Fluvastatin], in the series with HBV [1] (setting [6]), the IC50 was greater than 30000 nM. In addition, the “Inhibition of HBV infection (in words)” value in the series with HBV [1] (setting [7]) was “did not inhibit; also recorded: not by treatment with fluvastatin”. In addition, in the series “in vitro”, the CC50 was greater than 100000 nM. The “Cytotoxicity (in words)” value in the series with HepG2/NTCPA3 cells was “not cytotoxic”.
In the case of `C[C@@H]1O[C@@H](O[C@@H]2C=C3CC[C@@H]4[C@H](CC[C@]5(C)[C@@H](c6ccc(=O)oc6)CC[C@]45O)[C@@]3(C)CC2)[C@H](O)[C@H](O)[C@H]1O` [Proscillaridin A], the “Anti-HBV effect in non-adherent cells compared with adherent cells” value with HBV [1] (0, 10 or 30 nM, HBV 1,000 GEq/cell, HBV RNA) was “similar”. Also, the IC50 in the series with HBV [1] (setting [6]) was 7.2 ± 2.5 nM; in the series on NTCP [5], 22000 nM. The “Selectivity Index” value in the series on HBV [1] is recorded as 75.5 ± 26.7. Further, the “Inhibition of HBV infection (in words)” value with HBV [1] (setting [7]) is recorded as “inhibited HBV infection”. This compound also yielded a CC50 in the series “in vitro” of 496 ± 140 nM. In addition, the “Effect on binding of myr-47WT (200 nM) to the cell surface of HepG2/NTCPA3” value at NTCP [2] was “negligible effect”. In addition, the “Amount of HBV RNA in cells treated after infection” value with HBV [3] is “not decreased; also recorded: did not exhibit an inhibitory effect on the viral replication”. The “Amount of supernatant HBe antigen” value in the series on HBV [4] is reported as “reduced”.
For `CCC(C)(C)C(=O)O[C@H]1C[C@@H](C)C=C2C=C[C@H](C)[C@H](CC[C@@H]3C[C@@H](O)CC(=O)O3)[C@H]21` [Simvastatin], the “Inhibition of HBV infection (in words)” value in the series with HBV [1] was “inhibited HBV infection”. Moreover, the IC50 in the series on HBV [1] (HepG2, 1 h) was 5200 ± 600 nM. The CC50 in “in vitro” is greater than 30000 nM. For the same compound, in the series with HBV [3], the “Amount of HBV RNA in cells treated after infection” value is “not decreased; also recorded: did not exhibit an inhibitory effect on the viral replication”.
